Reference: US11203591B2, “Substituted 6-azabenzimidazole compounds” (Gilead Sciences, Inc., priority 2018, dated 2021)

Molecular target: human HPK1 (MAP4K1) (Homo sapiens (Human), UniProt Q92918)
Assay: HPK1 IC50 Assay (TR-FRET peptide phosphorylation)
Type: biochemical
Conditions: 0.15 nM HPK1, 10 μM ATP, 1 μM STK S1 peptide substrate; geometric mean
Summary of the method: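 Readout: TR-FRET (665 nm/620 nm) after EDTA stop, detecting STK S1 peptide (1 μM) phosphorylation by 0.15 nM HPK1 kinase domain, ATP-pre-activated, at 10 μM ATP over 3 h, 25° C, pH 7.0. IC50s from four-parameter variable-slope fits, normalized to staurosporine and DMSO, averaged geometrically.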

human HPK1 (MAP4K1), sequence (Q92918 17-274): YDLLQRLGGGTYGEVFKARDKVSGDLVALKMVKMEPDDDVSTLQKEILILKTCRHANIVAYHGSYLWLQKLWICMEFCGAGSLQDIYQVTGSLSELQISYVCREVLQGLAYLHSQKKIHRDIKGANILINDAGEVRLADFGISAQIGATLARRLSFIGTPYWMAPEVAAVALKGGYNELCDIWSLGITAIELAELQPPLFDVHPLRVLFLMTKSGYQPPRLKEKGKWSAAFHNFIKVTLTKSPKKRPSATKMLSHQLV

IC50	Structure (SMILES)
0.1 nM	CC(C)n1cnc2cc(-c3ccc4c(c3)N([C@]3(C)C[C@H](N5CCCCC5)C3)C(=O)C4(C)C)nc(Nc3cc(C(=O)NC4(C(F)F)CC4)c(Cl)c(F)c3F)c21 [Example 296, 2-Chloro-N-(1-(difluoromethyl)cyclopropyl)-5-((6-(3,3-dimethyl-1-((1s,3s)-1-methyl-3-(piperidin-1-yl)cyclobutyl)-2-oxoindolin-6-yl)-3-isopropyl-3H-imidazo[4,5-c]pyridin-4-yl)amino)-3,4-difluorobenzamide]
0.08 nM	CCNC(=O)c1cc(Nc2nc(-c3ccc4c(c3)N([C@H]3C[C@@](C)(N5CCCCC5)C3)C(=O)C4(C)C)cc3ncn(C(C)C)c23)c(F)c(F)c1Cl [Example 288, 2-chloro-5-((6-(3,3-dimethyl-1-((1s,3s)-3-methyl-3-(piperidin-1-yl)cyclobutyl)-2-oxoindolin-6-yl)-3-isopropyl-3H-imidazo[4,5-c]pyridin-4-yl)amino)-N-ethyl-3,4-difluorobenzamide]
0.07 nM	CCNC(=O)c1cc(Nc2nc(-c3cc4c(nc3F)C(C)(C)C(=O)N4[C@H]3C[C@@](C)(N4CCCCC4)C3)cc3ncn(C(C)C)c23)c(F)c(F)c1Cl [Example 273, 2-chloro-N-ethyl-3,4-difluoro-5-((6-(5-fluoro-3,3-dimethyl-1-((1s,3s)-3-methyl-3-(piperidin-1-yl)cyclobutyl)-2-oxo-2,3-dihydro-1H-pyrrolo[3,2-b]pyridin-6-yl)-3-isopropyl-3H-imidazo[4,5-c]pyridin-4-yl)amino)benzamide]

Same assay, conditions: recombinant HPK1 kinase domain 0.15 nM, 10 μM ATP, 1 μM STK S1 peptide; geometric mean of multiple experiments

IC50	Structure (SMILES)
0.05 nM	CC(C)n1cnc2cc(-c3ccc4c(c3)N([C@H]3C[C@@](C)(N5CCCCC5)C3)C(=O)C4(C)C)nc(Nc3cc(C(=O)NC4(C(F)F)CC4)cc(F)c3F)c21 [Example 243, N-(1-(difluoromethyl)cyclopropyl)-3-((6-(3,3-dimethyl-1-((1s,3s)-3-methyl-3-(piperidin-1-yl)cyclobutyl)-2-oxoindolin-6-yl)-3-isopropyl-3H-imidazo[4,5-c]pyridin-4-yl)amino)-4,5-difluorobenzamide]
0.1 nM	CNC(=O)c1cc(Nc2nc(-c3ccc4c(c3)N([C@H]3C[C@@H](NC5CCC(F)(F)CC5)C3)C(=O)C4(C)C)cc3ncn(C(C)C)c23)ccc1C [Example 80]
0.2 nM	CNC(=O)c1cc(Nc2nc(-c3ccc4c(c3)N([C@H]3C[C@@H](N5CCCCC5)C3)C(=O)C43CCN(C(=O)C45CC(O)(C4)C5)CC3)cc3ncn(C(C)C)c23)ccc1C [Example 148]
0.1 nM	CC[C@H](C)n1cnc2cc(-c3ccc4c(c3)N([C@H]3C[C@@H](N5CCCCC5)C3)C(=O)C43CCN(C(C)=O)CC3)nc(Nc3ccc(C)c(C(=O)NC)c3)c21 [Example 48]
0.1 nM	CC(=O)N1CCC2(CC1)C(=O)N([C@H]1C[C@@H](N3CCCCC3)C1)c1cc(-c3cc4ncn(C(C)C)c4c(Nc4cc(C(=O)NC5CC5)c(C)cc4F)n3)ccc12 [Example 91]
0.1 nM	CC(=O)N1CCC2(CC1)C(=O)N([C@H]1C[C@@H](N3CCCCC3)C1)c1cc(-c3cc4ncn(C(C)C)c4c(Nc4ccc(C)c(C(=O)NCCO)c4)n3)ccc12 [Example 132]
0.1 nM	CCNC(=O)c1cc(Nc2nc(-c3ccc4c(c3)N([C@H]3C[C@@H](N5CCCCC5)C3)C(=O)C4(C)C)cc3ncn(C(C)C)c23)ccc1C [Example 138]
0.1 nM	CNC(=O)c1cc(Nc2nc(-c3ccc4c(c3)N([C@H]3C[C@@H](N5CCCCC5)C3)C(=O)C43CCOCC3)cc3ncn(C(C)C)c23)c(F)cc1C [Example 35]
0.05 nM	CCNC(=O)c1cc(Nc2nc(-c3cnc4c(c3)N(C3CC(C)(N5CCC6C[C@@H]6C5)C3)C(=O)C4(C)C)cc3ncn(C(C)C)c23)c(F)c(F)c1Cl (stereo partly shown) [Example 252, 5-((6-(1-((1s,3s)-3-(3-azabicyclo[4.1.0]heptan-3-yl)-3-methylcyclobutyl)-3,3-dimethyl-2-oxo-2,3-dihydro-1H-pyrrolo[3,2-b]pyridin-6-yl)-3-isopropyl-3H-imidazo[4,5-c]pyridin-4-yl)amino)-2-chloro-N-ethyl-3,4-difluorobenzamide]
0.1 nM	CNC(=O)c1cc(Nc2nc(-c3ccc4c(c3)N([C@H]3C[C@@H](N5CC(C)(C)C5)C3)C(=O)C4(C)C)cc3ncn(C(C)C)c23)ccc1C [Example 122]
0.06 nM	CNC(=O)c1cc(Nc2nc(-c3ccc4c(c3)N([C@H]3C[C@@H](N5CCCC(C)(C)C5)C3)C(=O)C43CCN(C(C)=O)CC3)cc3ncn(C4CC4)c23)ccc1C [Example 161]
0.1 nM	CNC(=O)c1cc(Nc2nc(-c3ccc4c(c3)N([C@H]3C[C@@H](N[C@@H]5CCOC[C@H]5C)C3)C(=O)C4(C)C)cc3ncn(C(C)C)c23)ccc1C [Example 13]
0.08 nM	Cc1c(C(=O)NC2(C(F)F)CC2)cc(Nc2nc(-c3cnc4c(c3)N([C@H]3C[C@@](C)(N5CC6CCC6C5)C3)C(=O)C4(C)C)cc3ncn(C(C)C)c23)c(F)c1F (stereo partly shown) [Example 209, 5-((6-(1-((1s,3s)-3-(3-Azabicyclo[3.2.0]heptan-3-yl)-3-methylcyclobutyl)-3,3-dimethyl-2-oxo-2,3-dihydro-1H-pyrrolo[3,2-b]pyridin-6-yl)-3-isopropyl-3H-imidazo[4,5-c]pyridin-4-yl)amino)-N-(1-(difluoromethyl)cyclopropyl)-3,4-difluoro-2-methylbenzamide]
0.02 nM	CC(C)n1cnc2cc(-c3ccc4c(c3)N([C@H]3C[C@@](C)(N5CCCCC5)C3)C(=O)C4(C)C)nc(Nc3cc(C(=O)NC4(C(F)F)CC4)ccc3F)c21 [Example 238, N-(1-(Difluoromethyl)cyclopropyl)-3-((6-(3,3-dimethyl-1-((1s,3s)-3-methyl-3-(piperidin-1-yl)cyclobutyl)-2-oxoindolin-6-yl)-3-isopropyl-3H-imidazo[4,5-c]pyridin-4-yl)amino)-4-fluorobenzamide]
0.1 nM	CNC(=O)c1cc(Nc2nc(-c3ccc4c(c3)N([C@H]3C[C@@H](N5CCCC6(CC6)C5)C3)C(=O)C43CCN(C(C)=O)CC3)cc3ncn(C4CC4)c23)ccc1C [Example 166]
0.1 nM	CNC(=O)c1cc(Nc2nc(-c3ccc4c(c3)N([C@H]3C[C@@H](N5CCCCC5)C3)C(=O)C4(C)C)cc3ncn(C4CC4)c23)ccc1Cl [Example 40]
0.1 nM	CC(C)n1cnc2cc(-c3cnc4c(c3)N([C@H]3C[C@@](C)(N5CCCCC5)C3)C(=O)C4(C)C)nc(Nc3cc(C(=O)NCC(F)F)c(Cl)c(F)c3F)c21 [Example 250, 2-chloro-N-(2,2-difluoroethyl)-5-((6-(3,3-dimethyl-1-((1s,3s)-3-methyl-3-(piperidin-1-yl)cyclobutyl)-2-oxo-2,3-dihydro-1H-pyrrolo[3,2-b]pyridin-6-yl)-3-isopropyl-3H-imidazo[4,5-c]pyridin-4-yl)amino)-3,4-difluorobenzamide]
0.1 nM	Cc1c(C(=O)NC2(C(F)F)CC2)cc(Nc2nc(-c3cnc4c(c3)N([C@H]3C[C@@](C)(N5CCCCC5)C3)C(=O)C4(C)C)cc3ncn(C(C)C)c23)c(F)c1F [Example 185, N-(1-(difluoromethyl)cyclopropyl)-5-((6-(3,3-dimethyl-1-((1s,3s)-3-methyl-3-(piperidin-1-yl)cyclobutyl)-2-oxo-2,3-dihydro-1H-pyrrolo[3,2-b]pyridin-6-yl)-3-isopropyl-3H-imidazo[4,5-c]pyridin-4-yl)amino)-3,4-difluoro-2-methylbenzamide]
0.2 nM	Cc1cc(F)c(Nc2nc(-c3ccc4c(c3)N([C@H]3C[C@@H](N5CCCCC5)C3)C(=O)C43CCN(C(=O)C(C)(C)O)CC3)cc3ncn(C(C)C)c23)cc1C(=O)NC(C)C [Example 55]
0.3 nM	CNC(=O)c1cc(Nc2nc(-c3ccc4c(c3)N([C@H]3C[C@@H](N5CCCCC5)C3)C(=O)C4(C)C)cc3ncn(C(C)C)c23)ccc1OC(F)(F)F [Example 140]
0.1 nM	CNC(=O)c1cc(Nc2nc(-c3ccc4c(c3)N([C@H]3C[C@@H](NC(C)C)C3)C(=O)C4(C)C)cc3ncn(C(C)C)c23)ccc1C [Example 11]
0.08 nM	CC(C)n1cnc2cc(-c3cnc4c(c3)N([C@H]3C[C@@](C)(N5CCC6CC6C5)C3)C(=O)C4(C)C)nc(Nc3cc(C(=O)NC4(C(F)F)CC4)c(Cl)c(F)c3F)c21 (stereo partly shown) [Example 225, 5-((6-(1-((1s,3s)-3-(3-Azabicyclo[4.1.0]heptan-3-yl)-3-methylcyclobutyl)-3,3-dimethyl-2-oxo-2,3-dihydro-1H-pyrrolo[3,2-b]pyridin-6-yl)-3-isopropyl-3H-imidazo[4,5-c]pyridin-4-yl)amino)-2-chloro-N-(1-(difluoromethyl)cyclopropyl)-3,4-difluorobenzamide]
0.1 nM	Cc1c(C(=O)NC2(C(F)F)CC2)cc(Nc2nc(-c3cnc4c(c3)N([C@H]3C[C@@](C)(N5CCC(F)CC5)C3)C(=O)C4(C)C)cc3ncn(C(C)C)c23)c(F)c1F [Example 197, N-(1-(Difluoromethyl)cyclopropyl)-3,4-difluoro-5-((6-(1-((1s,3s)-3-(4-fluoropiperidin-1-yl)-3-methylcyclobutyl)-3,3-dimethyl-2-oxo-2,3-dihydro-1H-pyrrolo[3,2-b]pyridin-6-yl)-3-isopropyl-3H-imidazo[4,5-c]pyridin-4-yl)amino)-2-methylbenzamide]

Structure (SMILES)	IC50
Cc1cc(F)c(Nc2nc(-c3ccc4c(c3)N([C@H]3C[C@@H](N5CCC(C)(C)C5)C3)C(=O)C43CCN(C4COC4)CC3)cc3ncn(C(C)C)c23)cc1C(=O)NC(C)C [Example 100]	0.3 nM
CC(C)n1cnc2cc(-c3cnc4c(c3)N(C3CC(C)(N5CCC6C[C@@H]6C5)C3)C(=O)C4(C)C)nc(Nc3cc(C(=O)NC4(CF)CC4)c(Cl)c(F)c3F)c21 (stereo partly shown) [Example 258, 5-((6-(1-((1s,3s)-3-(3-azabicyclo[4.1.0]heptan-3-yl)-3-methylcyclobutyl)-3,3-dimethyl-2-oxo-2,3-dihydro-1H-pyrrolo[3,2-b]pyridin-6-yl)-3-isopropyl-3H-imidazo[4,5-c]pyridin-4-yl)amino)-2-chloro-3,4-difluoro-N-(1-(fluoromethyl)cyclopropyl)benzamide]	0.09 nM
